The text below walks through data of patent publication US6756409B2, “Phenoxyphenyl alkanesulphonates” (priority 2001, dated 2004).

Structures are written as SMILES.

As a reminder, the IC50 is the concentration needed to halve the response being measured. Read a low IC50 as inhibition by little substance. As a reminder, the half-life is how long it takes for the measured level to halve. As usually defined, the Tmax is the time at which the peak concentration occurs.

Data set [1] in a line: Microsomal stability investigations. The class given is in vitro ADME. To be noted: maximum possible bioavailability extrapolated from rat liver microsomes, 37° C., 15 minutes. As to the method:
4. Microsomal Stability Investigations
The metabolic stability of the compounds according to the invention can be measured in rat liver microsomes (in analogy to J. Pharmacol. Exp. Ther. 1997, 283, 46-58).
To determine the microsomal stability and extrapolate to the maximum possible bioavailability (Fmax) owing to the first-pass effect in the liver (phase 1 reactions), the substance is incubated in low concentration with microsomal protein, with addition of cofactors, at 37° C. for 15 minutes.
The incubation and the sampling take place on a modified automatic pipettor from Canberra Packard.

The target of another data set is T1, rat CB1 receptor (Rattus norvegicus, UniProt P20272).
T1 construct: expressed in transfected cells; host or cells: CHO (CHOluc9-derived reporter line, by analogy with the CB2 line)
The data set is described as follows: Rat CB1 luciferase reporter gene test. The class given is cell-based. Conditions: rat CHOCB1 reporter cell line, forskolin-stimulated luciferase activity. As to the method: 1. Rats CB1 Luciferase Reporter Gene Test
Stock cultures of a rat CHOCB1 reporter cell line were prepared by the method described in WO-A-98/37061, page 55 et seq.
The following test protocol was used for the substance screening: the stock cultures were cultivated in 50% of Dulbecco's modified Eagle medium/50% F-12 (DMEM/F12) with 10% FCS at 37° C. under 10% CO2 and split 1:10 after 2 to 3 days in each case. Test cultures were seeded with 5000 cells per well in 96-well plates and cultured at 37° C. for 70 hours. The cultures were then cautiously washed with phosphate-buffered saline and reconstituted with serum-free Ultra-CHO medium (Bio-Whittaker). The substances dissolved in DMSO were diluted 1× in medium and pipetted into the test cultures (maximum DMSO final concentration in test mixture: 0.5%). 20 minutes later, forskolin was added and the cultures were then incubated in an incubator at 37° C. for 3 hours. […] Immediately thereafter luciferase substrate solution (2.5 mM ATP, 0.5 mM luciferin, 0.1 mM coenzyme A, 10 mM tricine, 1.35 mM MgSO4, 15 mM DTT, pH 7.8) was added and briefly shaken, and the luciferase activity was measured using a Hamamatsu camera system. […]
The IC50 values were calculated using the GraphPadPrism program (Hill equation, specifically: one-site competition).

Data set [2] can be described thus: Pharmacokinetics in the rat. Conditions: for AUCstand / Cmax,stand: standardized to 1 mg/kg; for half-life: terminal half-life. The data set is classed as in vivo. As to the method: 5. Pharmacokinetics in the Rat
The substance is infused through a Braunüle in a lateral tail vein directly into the blood stream over 15 minutes. A calibrated 20 ml syringe is used for accurate administration of the chosen dose and volume. A Braun Melsungen No. 152440/1 pump is used for the infusion.
The substance is administered as bolus by gavage.
Blood samples are collected from catheterized animals (jugular vein) in heparinized tubes. The blood is centrifuged and the plasma is prepared in a suitable manner for analysis (LC-MS-MS). The plasma is stored at <−15° C. until analysed.
AUCstand: the area, standardized to a dose of 1 mg/kg, under the plasma concentration/time curve;
Cmax,stand: the maximum plasma concentration after a single administration, standardized to a dose of 1 mg/kg;
tmax: the time at which the maximum plasma concentration is reached after a single dose;
t1/2: terminal half-life;
F: bioavailability; in this case the percentage, compared with i.v. administration, of the dose which is systemically available;
VSS: apparent volume of distribution at the steady state.

A further data set addresses T2, CB1 receptor (Rattus norvegicus, UniProt P20272).
T2 construct: from tissue; host or cells: whole animal (rat), in vivo
The data set is described as follows: Rat hypothermia agonism test. The class given is in vivo. To be noted: oral administration. As to the method: The in vivo agonistic effect on the CB1 receptor was examined in the rat hypothermia assay.
Five minutes after determining the basal body temperature via an oesophageal temperature probe, the test substance is administered (orally). A control group receives, likewise orally, only the solvent for the test substances (Cremophors EL 1-10%+distilled water). The body temperature is measured 120 and 240 minutes after oral administration. The size of the group for each dose is 5-7 animals (rats).
Rat Hypothermia Agonism Test

Data set [3] deals with chronic mechanical hyperalgesia in axotomized rats. As to the kind of experiment: Axotomy of sciatic branches in the rat (chronic pain model). The data set is classed as in vivo. Conditions: orally, acute administration, 60 minutes before the test. As to the method: 7. Axotomy of Sciatic Branches in the Rat (Chronic Pain Model)
Under pentobarbital anaesthesia, the trifurcation of a sciatic nerve is exposed, and the peroneal and tibial branches are axotomized after the nerves have been ligated proximal of the axotomy site. Control animals undergo a sham operation. After the operation, the axotomized animals develop chronic mechanical hyperalgesia. This hyperalgesia is tested, comparing with sham-operated animals, with the aid of a pressure transducer (electronic von Frey anesthesiometer, IITC Inc.—Life Science Instruments, Woodland Hills, Calif., USA).
The substance is administered by various administration routes (i.v., i.p., orally, i.t., i.c.v., transdermally) at various times before the pain testing.

T2 sequence (P20272 whole entry): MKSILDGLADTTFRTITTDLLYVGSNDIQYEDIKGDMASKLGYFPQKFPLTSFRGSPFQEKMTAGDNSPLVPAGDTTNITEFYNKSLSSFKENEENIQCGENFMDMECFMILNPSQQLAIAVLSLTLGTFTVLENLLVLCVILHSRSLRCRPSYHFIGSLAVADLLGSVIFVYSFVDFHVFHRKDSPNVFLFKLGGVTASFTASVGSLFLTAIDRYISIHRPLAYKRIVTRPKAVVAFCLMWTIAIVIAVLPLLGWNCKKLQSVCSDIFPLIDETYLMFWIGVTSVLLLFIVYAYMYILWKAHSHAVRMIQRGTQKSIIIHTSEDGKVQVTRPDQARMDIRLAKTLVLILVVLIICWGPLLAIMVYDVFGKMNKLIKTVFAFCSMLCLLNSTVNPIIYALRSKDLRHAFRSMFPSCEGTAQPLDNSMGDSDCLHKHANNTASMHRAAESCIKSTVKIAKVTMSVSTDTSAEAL
T1 sequence (P20272 whole entry): as above

As for `Cc1c(Cl)cccc1Oc1cccc(OS(=O)(=O)CCCC(F)(F)F)c1` [Example 15], the Fmax in data set [1] is 4%.

The molecule `O=S(=O)(CCCC(F)(F)F)Oc1cccc(Oc2ccccc2OC(F)(F)F)c1` [Example 17] registered an IC50 against rat CB1 receptor of 0.81 nM. Besides, in data set [1], the Fmax is 40%.

Turning to `O=S(=O)(CCCC(F)(F)F)Oc1cccc(Oc2cccc(C(F)(F)F)c2Cl)c1` [Example 22], in data set [2] (i.v. infusion, dose 0.3 mg/kg), the AUCstand turned out to be 0.307 kg·h/L and the “Cmax,stand” value turned out to be 0.5978 kg/L. Moreover, in data set [2] (oral, dose 3 mg/kg, bioavailability compared with i.v. administration), the F stood at 33%. Also, in data set [2] (oral, dose 3 mg/kg), the AUCstand was found to be 0.102 kg·h/L and the “Cmax,stand” value worked out at 0.0198 kg/L. In data set [2] (plasma, iv, i.v. infusion, dose 0.3 mg/kg, apparent volume of distribution at steady state, read-out: VSS), the Vd stood at 4.12 L/kg. Further, in data set [2] (plasma, iv, i.v. infusion, dose 0.3 mg/kg), the half-life is 1.6 h. Besides, in data set [2] (plasma, oral, dose 3 mg/kg), the Tmax worked out at 2.29 h and the half-life was 2.36 h. The “ED−1° C. (effective dose for reducing the body temperature by 1° C.)” value on CB1 receptor worked out at 10 mg/kg. The “minimally effective dose reducing hyperalgesia” value in data set [3] is 1 mg/kg.
